Measured values taken from patent US12459918B2, “Isoquinolinone derivatives serving as rock protein kinase inhibitors and use thereof” (GUANGZHOU OCUSUN OPHTHALMIC BIOTECHNOLOGY CO., LTD., priority 2019, dated 2025).

System: New Zealand rabbits with normal intraocular pressure
Assay: Reduction of intraocular pressure by repeated eye-drop administration for 14 days, experiment operation 1
Assay type: in vivo
Settings: for Change of intraocular pressure: negative control minus group
Excerpt: Experimental example 4. Experiment on reduction of intraocular pressure and ocular toxicity of New Zealand rabbits with normal intraocular pressure by repeated eye-drop administration for 14 days
The intraocular pressure reduction action and the potential ocular toxicity of compound 63 were explored by 14 days of repeated eye-drop administration in rabbits with normal intraocular pressure.
Male New Zealand rabbits, aged 97-127 days, weighted 2.6-3.5 kg, purchased from PizhouDongfang Breeding Co. Ltd.
The male New Zealand rabbits were randomly divided into 7 groups, with 6 rabbits per group. Animals were randomly divided according to body weight Animals in 1-7 groups were eye-dropped with solvent/control sample/test sample in both eyes, the volume of the administration was all 50 μL/eye, once per day for 14 consecutive days, and the day of the administration was recorded as Day 1. On Day 1, intraocular pressure of the animals was measured before the administration and in 1, 2, 4, 6, 8 and 10 hours after the administration, respectively; on Days 2-14, intraocular pressure of the animals was measured in 1 hour after daily administration for the group administered with K-115, and intraocular pressure of the animal was measured in 4 hours after daily administration for the other groups.

[1] = 4 mg/mL once per day, Day 2, 1 hour after daily administration
[2] = 4 mg/mL once per day, Day 3, 1 hour after daily administration
[3] = 4 mg/mL once per day, Day 4, 1 hour after daily administration
[4] = 4 mg/mL once per day, Day 5, 1 hour after daily administration
[5] = 4 mg/mL once per day, Day 6, 1 hour after daily administration
[6] = 4 mg/mL once per day, Day 7, 1 hour after daily administration
[7] = 4 mg/mL once per day, Day 8, 1 hour after daily administration
[8] = 4 mg/mL once per day, Day 9, 1 hour after daily administration
[9] = 4 mg/mL once per day, Day 10, 1 hour after daily administration
[10] = 4 mg/mL once per day, Day 11, 1 hour after daily administration
[11] = 4 mg/mL once per day, Day 12, 1 hour after daily administration
[12] = 4 mg/mL once per day, Day 13, 1 hour after daily administration
[13] = 4 mg/mL once per day, Day 14, 1 hour after daily administration

## C[C@H]1CNCCCN1S(=O)(=O)c1cccc2cncc(F)c12 [Compound K-115, reference compound]
4 mg/mL both eyes, Day 1, 1 hour after administration
  Mean intraocular pressure of both eyes: 7.72 mmHg
4 mg/mL both eyes, Day 1, 2 hours after administration
  Mean intraocular pressure of both eyes: 9.00 mmHg
4 mg/mL both eyes, Day 1, 4 hours after administration
  Mean intraocular pressure of both eyes: 9.67 mmHg
4 mg/mL both eyes, Day 1, 6 hours after administration
  Mean intraocular pressure of both eyes: 10.56 mmHg
4 mg/mL both eyes, Day 1, 8 hours after administration
  Mean intraocular pressure of both eyes: 10.28 mmHg
4 mg/mL both eyes, Day 1, 10 hours after administration
  Mean intraocular pressure of both eyes: 12.81 mmHg
4 mg/mL both eyes, Day 1, before administration
  Mean intraocular pressure of both eyes: 10.83 mmHg
[1]
  Mean intraocular pressure of both eyes: 6.83 mmHg
  Change of intraocular pressure: 4.25 mmHg
[2]
  Mean intraocular pressure of both eyes: 6.81 mmHg
  Change of intraocular pressure: 3.58 mmHg
[3]
  Mean intraocular pressure of both eyes: 6.92 mmHg
  Change of intraocular pressure: 3.69 mmHg
[4]
  Mean intraocular pressure of both eyes: 6.67 mmHg
  Change of intraocular pressure: 4.3 mmHg
[5]
  Mean intraocular pressure of both eyes: 6.75 mmHg
  Change of intraocular pressure: 2.56 mmHg
[6]
  Mean intraocular pressure of both eyes: 7.39 mmHg
  Change of intraocular pressure: 2.67 mmHg
[7]
  Mean intraocular pressure of both eyes: 7.53 mmHg
  Change of intraocular pressure: 3.78 mmHg
[8]
  Mean intraocular pressure of both eyes: 7.78 mmHg
  Change of intraocular pressure: 1.66 mmHg
[9]
  Mean intraocular pressure of both eyes: 7.94 mmHg
  Change of intraocular pressure: 1.81 mmHg
[10]
  Mean intraocular pressure of both eyes: 7.94 mmHg
  Change of intraocular pressure: 1.75 mmHg
[11]
  Mean intraocular pressure of both eyes: 7.89 mmHg
  Change of intraocular pressure: 1.64 mmHg
[12]
  Mean intraocular pressure of both eyes: 8.25 mmHg
  Change of intraocular pressure: 3.14 mmHg
[13]
  Mean intraocular pressure of both eyes: 8.50 mmHg
  Change of intraocular pressure: 2.47 mmHg
4 mg/mL, Day 1, 1 hour after administration
  Change of intraocular pressure: 2.59 mmHg
4 mg/mL, Day 1, 2 hours after administration
  Change of intraocular pressure: 1.97 mmHg
4 mg/mL, Day 1, 4 hours after administration
  Change of intraocular pressure: 1.64 mmHg
4 mg/mL, Day 1, 6 hours after administration
  Change of intraocular pressure: 1.38 mmHg
4 mg/mL, Day 1, 8 hours after administration
  Change of intraocular pressure: 2.69 mmHg
4 mg/mL, Day 1, 10 hours after administration
  Change of intraocular pressure: 1.61 mmHg
4 mg/mL, Day 1, before administration
  Change of intraocular pressure: −0.94 mmHg
